Data as given in patent US20080293818A1, “Regulator of Physiological Function of Ghrelin and Use Thereof” (priority 2004, published 2008).
Marks after values point to notes of the source that are not given here.

Tests used:
Format in all cases: in vivo, mouse
[1] = test system: des-acyl and acyl-modified ghrelin peptides in the stomach; test: Molecular forms of stomach ghrelin peptide after ingestion (HPLC fractionation, C-RIA); details: mice; for stomach ghrelin modified by the acyl group corresponding to the ingested lipid: HPLC peak; for C6:0-ghrelin (n-hexanoyl ghrelin) concentration in the stomach / C8:0-ghrelin (n-octanoyl ghrelin) concentration in the stomach / C10:0-ghrelin (n-decanoyl ghrelin) concentration in the stomach / Des-acyl ghrelin concentration in the stomach / C10:1-ghrelin (n-decenoyl ghrelin) concentration in the stomach: 5% (w/w) in chow, 14 days, from 0.2 mg wet weight, C-RIA after HPLC, mean ± S.D.; for C10:1-ghrelin (n-decenoyl ghrelin) concentration in the stomach: fraction holds unidentified ghrelin molecules too
Procedure: (§1) Male C57BL/6J mice weighing 20-25 g (10-12 week old) were maintained under controlled temperature (21-23° C.) and light conditions (light on 0700-1900) with ad libitum access to food and water. Medium-chain fatty acids (MCFAs), i.e., n-hexanoic, n-octanoic, and n-lauric acids (Sigma-Aldrich Japan Co., Ltd., Tokyo), were dissolved in water at 5 mg/ml. n-Palmitic acid, a common long-chain fatty acid (LCFA) (Sigma-Aldrich Japan Co., Ltd., Tokyo), was mixed into standard laboratory chow (CLEA Rodent Diet CE-2, CLEA Japan, Osaka) at a concentration of 1% (w/w), to equilibrate the total intake amount of this lipid to the other medium-chain fatty acids contained in the food. Medium- and long-chain triglycerides (MCTs and LCTs), i.e., glyceryl trihexanoate, trioctanoate, tridecanoate and tripalmitates (Wako Pure Chemical, Osaka, Japan), were mixed with standard laboratory chow at a concentration of 5% (w/w). Whole stomach tissues from treated mice were collected at the indicated times (0-14 days) after ingesting the free fatty acid- or triacylglyceride-containing food. Fresh tissue samples from these mice were diced and boiled for 5 minutes in a 10-fold volume of water. The tissue-containing solution was then adjusted to 1M acetic acid after cooling and then homogenized with a Polytron mixer. The supernatant, obtained after centrifugation at 15,000 rpm for 15 minutes, was then lyophilized. The lyophilized material was dissolved in RIA buffer and subjected to ghrelin C- and N-RIA. To elucidate the forms of ghrelin peptides modified by different acyl groups, extracted stomach peptides were collected using a Sep-Pak Plus C18 cartridge (Waters, Milford, Mass.) and subjected to C18 RP-HPLC (Symmetry 300, 3.9×150 mm, Waters) with a linear gradient from 10 to 60% CH3CN/0.1% TFA at a flow rate of 1.0 ml/minute for 40 minutes. Five hundred micro-litter fractions were collected. Ghrelin peptide content in each fraction was measured by ghrelin C- and N-RIA as described above. Degradation of ghrelin was not observed during the extraction.
To clarify what molecular forms of ghrelin peptide are present after the ingestion of triacylglycerol (triacylglycerin), peptide extracts from stomachs of mouse fed chow containing glyceryl trihexanoate (C6:0-MCT), glyceryl trioctanoate (C8:0-MCT), glyceryl tridecanoate (C10:0-MCT), and standard laboratory chow (Control) were fractionated by HPLC, and measured for ghrelin immunoreactivity by C-RIA. […] Based on the observed retention times of synthetic acyl-modified ghrelin peptides, peaks a, d, h, and k corresponded to des-acyl ghrelin, peaks b, f, i, and 1 corresponded to n-octanoyl (C8:0) ghrelin, and peaks c, g, j, and m corresponded to n-decenoyl (10:1) ghrelin.
Male C57BL/6J mice were fed chow mixed with 5% (w/w) glyceryl trihexanoate (C6:0-MCT), glyceryl trioctanoate (C8:0-MCT), or glyceryl tri-decanoate (C10:0-MCT) for 14 days. The concentrations of des-acyl ghrelin, n-hexanoyl ghrelin (C6:0-ghrelin), n-octanoyl ghrelin (C8:0-ghrelin), n-decenoyl ghrelin (C10:1-ghrelin), and n-decanoyl ghrelin (C10:0-ghrelin) from stomach samples (from 0.2 mg wet weight) were measured by ghrelin C-RIA after HPLC fractionation.

[2] = test system: acyl-modified and total ghrelin in the stomach; test: Stomach ghrelin content after medium- to long-chain triacylglycerol ingestion (N-RIA / C-RIA); details: mice, 5% (w/w) in chow, two weeks; for production of acyl-modified ghrelin in stomach tissue: N-RIA
Procedure: (§2) RIAs specific for ghrelin were performed as previously described [D2]. Two polyclonal antibodies were raised in rabbits against the N-terminal (Gly^1-Lys^11 with O-n-octanoylation at Ser^3) and C-terminal (Gln^13-Arg^28) fragments of rat ghrelin. RIA incubation mixtures were composed of 100 μl of either standard ghrelin or an unknown sample, with 200 μl of antiserum diluted in RIA buffer (50 mM sodium phosphate buffer (pH 7.4), 0.5% BSA, 0.5% Triton-X100, 80 mM sodium chloride (NaCl), 25 mM disodium ethylenediamine-tetraacetate (EDTA 2-Na) and 0.05% sodium azide (NaN3)) containing 0.5% normal rabbit serum. Anti-rat ghrelin [D1-D11] and anti-rat ghrelin [D13-D28] antisera were used at final dilutions of 1/3,000,000 and 1/20,000, respectively. After a 12-hour incubation at 4° C., 100 μl of ^125I-labeled ligand (20,000 cpm) was added for an additional 36-hour incubation. Then, 100 μl of anti-rabbit goat antibody was added. After incubation for 24 hours at 4° C., free and bound tracers were separated by centrifugation at 3,000 rpm for 30 min. Pellet radioactivity was quantified in a gamma counter (ARC-600, Aloka, Tokyo). All assays were performed in duplicate at 4° C.
as §1
Orally ingested triacylglycerols are intraluminally hydrolyzed and absorbed through the gastro-intestinal mucosa as free fatty acids or monoglycerides. Thus, ingested triacylglycerols may serve as a source of free fatty acids [D26]. To examine if ingested triacylglycerols are used for acyl-modification of ghrelin, mice were fed chow mixed with 5% (w/w) glyceryl trihexanoate (C6), trioctanoate (C8), tridecanoate (C10), and tripalmintate (C16). After two weeks, gastric peptides were extracted. Ghrelin concentration in the stomach of these mice and in that from mice fed standard laboratory chow (Control) (n=8) are shown. The content of acyl-modified and total ghrelins was measured by N- and C-RIA. […]

[3] = test system: acyl-modified and total ghrelin in the stomach; test: Stomach ghrelin content after free fatty acid ingestion (N-RIA / C-RIA); details: mice, 14 days; for total ghrelin concentration in the stomach vs control: C-RIA
Procedure: as §2
Stomachs collected from either mice or rats were washed two times in phosphate buffered physiological saline (pH 7.4). After measuring the wet weight of each sample, the whole stomach tissue was diced and boiled for 5 minutes in a 10-fold volume of water to inactivate intrinsic proteases. After cooling on ice, boiled samples were adjusted to 1 M acetic acid-20 mM hydrochloric acid (HCl). Peptides were extracted following homogenization with a Polytron mixer (PT 6100, Kinematica AG, Littan-Luzern, Switzerland). Extract supernatants, isolated following 15-minute-centrifugation at 15,000 rpm (12,000×g), were lyophilized and stored at −80° C. The lyophilized samples were redissolved in either RIA buffer or calcium mobilization assay buffer prior to ghrelin RIA or calcium mobilization assay, respectively.
as §1, with “Degradation of ghrelin was not observed during the extraction.” left out

[4] = test system: n-heptanoyl ghrelin in the stomach; test: Molecular forms of stomach ghrelin after glyceryl triheptanoate ingestion (HPLC, C-RIA and N-RIA); details: mice, HPLC, C-RIA / N-RIA
Procedure: as §1
Male C57BL/6J mice weighing 20-25 g (10-12 week old) were maintained under controlled temperature (21-23° C.) and light conditions (light on 0700-1900) with ad libitum access to food and water. Glyceryl triheptanoate (Fluka Chemie GmbH, Buchs, Switzerland) was mixed with standard laboratory chow at a concentration of 5% (w/w). Four days after mice were fed glyceryl triheptanoate-containing food, stomachs (total 1,000 mg) were recovered from mice (n=7). The total consumption of glyceryl triheptanoate-containing food was approximately 13.5 g/mouse, amounting to 675 mg total glyceryl triheptanoate ingested by each mouse. Stomachs were minced and boiled for 5 minutes in 5× volumes of water to inactivate intrinsic proteases. […]

Compound	stomach ghrelin modified by the acyl group corresponding to the ingested lipid ([1]; C-RIA)	production of acyl-modified ghrelin in stomach tissue [2]	total ghrelin concentration in the stomach vs control [3]	gastric concentration of acyl-modified ghrelin vs control ([3]; N-RIA)	other results
CCCC(=O)OCC(COC(=O)CCC)OC(=O)CCC [glyceryl tributyrate]	not observed				
CCCCCCCCCCCCC(=O)OCC(O)CO (centres unmarked) [glyceryl tridecanoate]	increased	no effect			molar ratio of acyl-modified ghrelin/total ghrelin [2]: increased; C6:0-ghrelin (n-hexanoyl ghrelin) concentration in the stomach [1]: 22.1 ± 6.1; C8:0-ghrelin (n-octanoyl ghrelin) concentration in the stomach [1]: 460.0 ± 70.6; C10:0-ghrelin (n-decanoyl ghrelin) concentration in the stomach [1]: 95.1 ± 9.7^a); Des-acyl ghrelin concentration in the stomach [1]: 181.4 ± 31.5^c); C10:1-ghrelin (n-decenoyl ghrelin) concentration in the stomach [1]: 64.5 ± 14.2^b)
CCCCCC(=O)OCC(COC(=O)CCCCC)OC(=O)CCCCC [glyceryl trihexanoate]	increased drastically	slightly suppressed			molar ratio of acyl-modified ghrelin/total ghrelin [2]: decreased significantly; C6:0-ghrelin (n-hexanoyl ghrelin) concentration in the stomach [1]: 237.3 ± 35.0^a); C8:0-ghrelin (n-octanoyl ghrelin) concentration in the stomach [1]: 358.0 ± 33.0^b); C10:0-ghrelin (n-decanoyl ghrelin) concentration in the stomach [1]: 14.1 ± 5.2; Des-acyl ghrelin concentration in the stomach [1]: 245.0 ± 11.0; C10:1-ghrelin (n-decenoyl ghrelin) concentration in the stomach [1]: 133.5 ± 12.1^b); n-octanoyl ghrelin concentration in the stomach vs control ([1]; HPLC peak f, C-RIA): significant decreases
CCCCCCCCCCCCCCCC(=O)OCC(COC(=O)CCCCCCCCCCCCCCC)OC(=O)CCCCCCCCCCCCCCC [glyceryl tripalmitate]	not observed	no effect			
CCCCCCCCCC(=O)O [n-decanoic acid]	increased		No significant changes	No significant changes	
CCCCCCC(=O)O [n-heptanoic acid]					appearance of peak b / d (n-heptanoyl ghrelin) immunoreactivity in stomach extracts [4]: also detected
CCCCCC(=O)O [n-hexanoic acid]	increased		No significant changes	No significant changes	
CCCCCCCC(=O)O [n-octanoic acid]	increased		No significant changes	increased significantly	ratio of n-octanoyl ghrelin/total ghrelin [3]: increased; mean concentration of acyl-modified ghrelin in the stomach ([3]; N-RIA, n=8, control 1,795): 2,455 fmol/mg wet weight
CCCCCCCCCCCC(=O)OCC(COC(=O)CCCCCCCCCCC)OC(=O)CCCCCCCCCCC [trilaurate]	not observed				
n-palmitic acid			No significant changes	No significant changes	
